Measurements: patent publication US20100286186A1, “NOVEL DICARBOXYLIC ACID LINKED AMINO ACID AND PEPTIDE PRODRUGS OF OPIOIDS AND USES THEREOF” (Shire LLC, priority 2009, published 2010)
“And” between values parts separate entries of the source, which are not always exact repeats. Equal values may be shown once. Marks after values point to notes of the source that are not given here.

Key:
[1] = tested on: guinea pig small intestine myenteric plexus longitudinal muscle; test: Ex vivo smooth muscle contractility, electrical field stimulation response of isolated guinea pig small intestine; settings: for EC50: Cavia porcellus, isolated guinea pig ileum, concentration as free base of opioid, read-out: EC50, opioid effect on electrical field stimulation response
gut motility in the rat = test: Charcoal propulsion test of GI motility in the rat; type: in vivo; settings: oral, 30 mg/kg or equimolar dose
Procedure: Test treatments were administered to groups of up to 10 rats fasted overnight prior to the test.
Test treatments were administered orally 60 minutes prior to a 2.0 mL oral dose of a 10% suspension of charcoal in 5% gum arabic. Thirty minutes after dosing with charcoal, the rats were sacrificed and the entire gastro-intestinal tract quickly and carefully removed. The distance the charcoal meal had traveled from the pyloric sphincter toward the caecum was measured and expressed as a percentage of both the total gut length and the length of the small intestine.

[2] = Bioavailability of oxycodone, codeine and dihydrocodeine from their succinyl valine ester prodrugs in the dog (oral gavage, two-way crossover); settings: dogs, oral gavage; for T>50%Cmax of dihydrocodeine: 1 mg free base equivalents dihydrocodeine/kg; for T>50%Cmax of oxycodone: 1 mg free base equivalents oxycodone/kg
Procedure: The characteristics of the test animals are set out in Table 10, below.
Blood samples were taken at various times after administration and submitted to analysis for the parent drug and pro-drug using a validated LC-MS-MS assay. Pharmacokinetic parameters derived from the plasma analytical data were determined using Win Nonlin.

[3] = Comparative pharmacokinetics of oxycodone after oral administration to female Sprague Dawley rats; settings: oral, 10 mg oxycodone free base equivalents/kg
[4] = Comparative oral bioavailability of oxycodone from various dicarboxylate bridged amino acid prodrugs in dogs (nine-way crossover); type: in vivo, dog; settings: 1 mg/kg oxycodone free base, mean (±sd)
[5] = Comparative pharmacokinetics of oxycodone in the cynomolgus monkey after oral administration; settings: male cynomolgus monkeys, oral, 1 mg oxycodone free base equivalents/kg

COc1ccc2c3c1O[C@H]1[C@@H](OC(=O)CCC(=O)NC(C(=O)O)C(C)C)C=CC4[C@@H](C2)N(C)CC[C@@]341 (stereo in doubt) [Codeine-[succinyl-(S)-valine] ester, codeine-[succinyl-(S)-valine]ester]
EC50 [1]: 6.3 µM | reduction in potency compared to parent drug ([1]; guinea pig ileal smooth muscle): 50% | delay of the passage of the charcoal meal (gut motility) (gut motility in the rat): less than half the amount of codeine | T>50%Cmax of codeine ([2]; 1 mg free base equivalents codeine/kg, median (n=5)): 2 h

COc1ccc2c3c1O[C@H]1[C@@H](O)CC[C@H]4[C@@H](C2)N(C)CC[C@@]341 [Dihydrocodeine, dihydrocodeine, reference compound]
EC50 [1]: 5 µM | delay of the passage of the charcoal meal (gut motility) (gut motility in the rat): ~30% | T>50%Cmax of dihydrocodeine ([2]; individual dogs 1-5): 0.5 h | T>50%Cmax of dihydrocodeine ([2]; median (n=5)): 0.5^a h | T>50%Cmax of dihydrocodeine ([2]; median (n=5), listed as dihydrocodeine): 0.5 h

COc1ccc2c3c1O[C@H]1C(=O)CC[C@@]4(O)[C@@H](C2)N(C)CC[C@]314.Cl [Oxycodone HCl, oxycodone hydrochloride, reference compound]
T>50%Cmax of oxycodone ([3]; individual rats, hydrochloride): 1.75 h (2×) and 0.75 h (2×) and 0.5 h | T>50%Cmax of oxycodone ([3]; median): 0.75^a h | T50% Cmax of oxycodone [4]: 2.0 (±0.6) h. | T>50%Cmax of oxycodone ([5]; individual monkeys 1-5, hydrochloride): 1.84 h and 1.18 h and 1.89 h and 2.37 h and 1.79 h | T>50%Cmax of oxycodone ([5]; mean (n=5)): 1.81 h | T>50%Cmax of oxycodone ([2]; individual dogs 1-5): 0.5 h | T>50%Cmax of oxycodone ([2]; median (n=5)): 0.5^a h

COc1ccc2c3c1O[C@H]1[C@@H](OC(=O)CCC(=O)N[C@H](C(=O)O)C(C)C)CCC4[C@@H](C2)N(C)CC[C@@]341 (stereo partly drawn) [dihydrocodeine-[succinyl-(S)-valine]ester]
EC50 [1]: 20 µM | delay of the passage of the charcoal meal (gut motility) (gut motility in the rat): 8.5% | T>50%Cmax of dihydrocodeine ([2]; median (n=5)): 2 h
